In article PMC6556873, “Rapid Covalent-Probe Discovery by Electrophile-Fragment Screening” (Journal of the American Chemical Society, 2019):
Like-named read-outs stand apart in the source and are kept apart here.

What was measured:
in vitro [1] = assay: in vitro; parameters: species or system CCD841, HEK293; settings: human, hb2 cells, read-out: HB-2 Cells Viability (%)
in vitro [2] = assay: in vitro; parameters: species or system HB2, HEK293; settings: human, ccd841 cells
PCAF = target: T1, PCAF (Homo sapiens, UniProt Q92831); parameters: Intact protein LC/MS covalent labelling, fragments in pools of five, 200 uM each, 4 °C; settings: 24 h, 4 °C, pool of five; 200 µM; covalent
T1 construct: gene KAT2B
T1 sequence (Q92831 whole entry, the tested form may be a part): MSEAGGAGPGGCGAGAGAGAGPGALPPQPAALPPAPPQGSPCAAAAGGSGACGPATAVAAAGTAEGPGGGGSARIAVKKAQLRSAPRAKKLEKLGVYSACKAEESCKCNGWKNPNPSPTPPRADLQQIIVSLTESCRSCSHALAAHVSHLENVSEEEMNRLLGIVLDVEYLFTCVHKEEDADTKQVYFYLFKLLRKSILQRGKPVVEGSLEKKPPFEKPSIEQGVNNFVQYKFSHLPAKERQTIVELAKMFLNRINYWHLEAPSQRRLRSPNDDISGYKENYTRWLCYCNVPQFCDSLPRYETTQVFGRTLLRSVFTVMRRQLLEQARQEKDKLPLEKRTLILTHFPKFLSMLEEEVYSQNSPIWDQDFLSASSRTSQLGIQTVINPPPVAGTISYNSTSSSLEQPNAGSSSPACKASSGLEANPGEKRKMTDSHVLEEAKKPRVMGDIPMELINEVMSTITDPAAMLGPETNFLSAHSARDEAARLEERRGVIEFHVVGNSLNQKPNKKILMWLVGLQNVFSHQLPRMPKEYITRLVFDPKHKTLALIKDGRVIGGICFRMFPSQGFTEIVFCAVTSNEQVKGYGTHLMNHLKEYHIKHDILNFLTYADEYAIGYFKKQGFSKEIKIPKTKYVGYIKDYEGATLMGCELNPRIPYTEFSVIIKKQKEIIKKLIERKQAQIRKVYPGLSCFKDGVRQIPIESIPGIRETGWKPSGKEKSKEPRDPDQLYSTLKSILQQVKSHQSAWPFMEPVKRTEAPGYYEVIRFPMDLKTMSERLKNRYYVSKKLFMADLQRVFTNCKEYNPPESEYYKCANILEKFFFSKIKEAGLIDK

BSA = target: T2, BSA (Bos taurus, UniProt P02769); parameters: Intact protein LC/MS covalent labelling, fragments in pools of five, 200 uM each, 4 °C; settings: 24 h, 4 °C, pool of five; 200 µM; covalent
T2 construct: gene ALB
T2 sequence (P02769 whole entry, the tested form may be a part): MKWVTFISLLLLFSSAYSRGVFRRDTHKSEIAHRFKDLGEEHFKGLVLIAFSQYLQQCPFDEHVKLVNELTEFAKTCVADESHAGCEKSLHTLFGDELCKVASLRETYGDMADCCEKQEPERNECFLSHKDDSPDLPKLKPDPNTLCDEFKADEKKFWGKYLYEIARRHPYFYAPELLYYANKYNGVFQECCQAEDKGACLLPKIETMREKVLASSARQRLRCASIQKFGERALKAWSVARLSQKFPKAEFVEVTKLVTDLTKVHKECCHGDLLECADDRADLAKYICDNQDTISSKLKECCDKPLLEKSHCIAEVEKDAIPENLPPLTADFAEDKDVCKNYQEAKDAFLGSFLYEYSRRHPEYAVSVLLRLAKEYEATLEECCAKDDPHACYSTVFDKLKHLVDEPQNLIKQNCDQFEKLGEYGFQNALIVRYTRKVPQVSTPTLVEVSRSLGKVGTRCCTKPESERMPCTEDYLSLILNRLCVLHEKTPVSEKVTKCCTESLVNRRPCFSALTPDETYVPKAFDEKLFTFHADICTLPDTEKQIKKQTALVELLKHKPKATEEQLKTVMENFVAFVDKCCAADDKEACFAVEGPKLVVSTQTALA

OTUB2 (OTUB2A) = target: T3, OTUB2 (OTUB2A) (Homo sapiens, UniProt Q96DC9); parameters: Intact protein LC/MS covalent labelling, fragments in pools of five, 200 uM each, 4 °C; settings: 24 h, 4 °C, pool of five; 200 µM; covalent
T3 construct: full length residues 1-234, E. coli BL21(DE3)-R3, His tag removed by TEV, construct 27312 Da
T3 sequence (Q96DC9 1-234): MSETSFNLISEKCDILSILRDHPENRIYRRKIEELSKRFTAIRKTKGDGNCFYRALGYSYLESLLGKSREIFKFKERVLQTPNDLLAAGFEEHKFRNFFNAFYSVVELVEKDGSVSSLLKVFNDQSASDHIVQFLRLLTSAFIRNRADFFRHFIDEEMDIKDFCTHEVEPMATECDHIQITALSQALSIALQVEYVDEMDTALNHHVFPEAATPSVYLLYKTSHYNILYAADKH

NUDT7 = target: T4, NUDT7 (Homo sapiens, UniProt P0C024); parameters: Intact protein LC/MS covalent labelling, fragments in pools of five, 200 uM each, 4 °C; settings: 24 h, 4 °C, pool of five; 200 µM; covalent
T4 construct: residues 14-235, E. coli, pNIC28-Bsa4, N-terminal His6 tag removed by TEV, construct 26672 Da
T4 sequence (P0C024 14-235): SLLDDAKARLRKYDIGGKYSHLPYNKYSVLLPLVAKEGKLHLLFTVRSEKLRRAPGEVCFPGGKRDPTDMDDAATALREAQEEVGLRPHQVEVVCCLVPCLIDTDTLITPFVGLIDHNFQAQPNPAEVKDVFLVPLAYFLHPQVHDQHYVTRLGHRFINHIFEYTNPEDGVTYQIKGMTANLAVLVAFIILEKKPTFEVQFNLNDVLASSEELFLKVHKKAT

in vitro [3] = assay: in vitro; parameters: species or system HB2, CCD841; settings: human, hek293 cells

| Compound | viability at 48 h, 10 µM (in vitro [1]) | viability at 48 h, 10 µM (in vitro [2]) | PCAF (PCAF) | BSA (BSA) | OTUB2 (OTUB2 (OTUB2A)) | NUDT7 (NUDT7) | viability at 48 h, 10 µM (in vitro [3]) |
| --- | --- | --- | --- | --- | --- | --- | --- |
| CC(C#N)(NC(=O)CCl)C1CC1 (stereo not drawn) [PCM-0102664] | 99.7% | 89.6% | 0 | 0 | 0 | 0 | 80.8% |
| Cl.O=C(CCl)N1CCN(c2cnccn2)CC1 [PCM-0102889] | 88.2% | 97.2% | 0 | 0 | 0 | 0 | 94.7% |
| CC(C)N(C)C(=O)C1CCN(C(=O)CCl)CC1 [PCM-0102974] | 86.7% | 84% | 0 | 0 | 0 | 0 | 79.8% |
| O=C(CCl)N1CCN(c2ncc(C(F)(F)F)cc2Cl)CC1 [PCM-0102378] | 1.8% | 2.9% | 0 | 0 | 0.05 | 0.14 | 1.8% |
| C=CC(=O)N1CCCC(C(C)NC(=O)NC(C)(C)C)C1 (stereo not drawn) [PCM-0102723] | 105% | 109% | 0 | 0 | 0 | 0 | 99.2% |
| Cc1sc(NC(=O)CCl)c(C#N)c1C [PCM-0102202] | 32.8% | 55.2% | 0 | 0 | 0 | 0 | 14.4% |
| Cc1n[nH]c(C)c1NC(=O)CCl [PCM-0102588] | 102% | 98.7% | 0 | 0 | 0 | 0 | 98.6% |
| Cc1cc(SC#N)cc(C)c1NC(=O)CCl [PCM-0102586] | 27.3% | 14.2% | 0 | 0 | 0 | 0 | 51.6% |
| N#Cc1cccc(NC(=O)CCl)c1 [PCM-0103033] | 6.3% | 19.1% | 0 | 0 | 0.23 | 0 | 7.4% |
| CNC(=O)C1CCCN1C(=O)CCl (stereo not drawn) [PCM-0102518] | 101% | 93.3% | 0 | 0 | 0 | 0 | 67.8% |
| Cc1ccc(NC(=O)CCl)cc1Cl [PCM-0102208] | 3.7% | 37.4% | 0 | 0 | 0.46 | 0.19 | 1.2% |
| O=C(CCl)NCc1ccc(F)cc1C(F)(F)F [PCM-0102733] | 86.6% | 79.1% | 0 | 0 | 0.33 | 0.06 | 68.8% |
| CC1CN(C(=O)CCl)CC(C)O1 (stereo not drawn) [PCM-0102796] | 92.9% | 76.2% | 0 | 0 | 0 | 0 | 66.2% |
| O=C(CCl)N1CCN(C(=O)C2COc3ccccc3O2)CC1 (stereo not drawn) [PCM-0102996] | 19.8% | 56.4% | 0 | 0 | 0.13 | 0 | 5.8% |
| CN(C(=O)CCl)C1CCS(=O)(=O)C1 (stereo not drawn) [PCM-0102178] | 56.9% | 72.1% | 0 | 0 | 0 | 0 | 31.5% |
| C=CC(=O)N1CCCC2(CCS(=O)(=O)C2)C1 (stereo not drawn) [PCM-0102600] | 107% | 121% | 0 | 0 | 0 | 0.05 | 98.9% |
| O=C(CCl)NC(=O)Nc1ccc2c(c1)OCCO2 [PCM-0102614] | 88.7% | 83.6% | 0 | 0 | 0.27 | 0.23 | 80.3% |
| Cc1nc(NC(=O)CCl)c(Cl)cc1Cl [PCM-0102206] | 110% | 105% | 0 | 0 | 0 | 0 | 101% |
| CC1CCC(N(C)C(=O)CCl)CC1 (stereo not drawn) [PCM-0103019] | 39.2% | 40.7% | 0 | 0 | 0 | 0 | 39.9% |
| CC(C)(C)C(=O)NC(=O)CCl [PCM-0103021] | 105% | 116% | 0 | 0 | 0 | 0 | 98.9% |
| C=CC(=O)N1CCCc2ccccc21 [PCM-0102549] | 111% | 109% | 0 | 0 | 0 | 0 | 111% |
| Cc1ccsc1CN(C)C(=O)CCl [PCM-0102785] | 22.2% | 56.7% | 0 | 0 | 0 | 0.2 | 36% |
| O=C(CCl)Nc1ccc(OC(F)(F)F)cc1 [PCM-0102276] | 13.3% | 64.9% | 0 | 0 | 0.36 | 0.24 | 9.2% |
| Cc1nc(-c2ccc(C)c(NC(=O)CCl)c2)n[nH]1 [PCM-0103052] | 57% | 43.4% | 0 | 0 | 0.09 | 0.12 | 39.1% |
